From US20050032165A1, “Potassium channels, nucleotide sequences encoding them, and methods of using same” (BASF AKTIENGESELLSCHAFT, priority 1994, published 2005)

Key:
CY162 cells = experiment: Yeast agar plate bioassay, control pYES2-containing CY162 strain; assay type: cell-based, Saccharomyces cerevisiae; conditions: CY162 bearing pYES2; low potassium agar; compound on filter disk
Experimental: (§1) FIG. 8. Inhibition of growth of yeast cells containing heterologous potassium channels. CY162 cells (10^5) bearing the indicated plasmids are plated in arginine phosphate agar medium containing 0.2 mM potassium chloride. Sterile filter disks were placed on the surface of the agar and saturated with 20 μl of a 1 M solution of potassium channel blocking compound. Clockwise from upper left-hand comer is BaCl2, CsCl, TEA, and RbCl. KCl is applied to the center disk.
Yeast strains dependent on heterologous potassium channels for growth should be sensitive to non-specific potassium channel blocking compounds. To test the potassium channel blocking properties of several compounds, a convenient agar plate bioassay is employed. Strains containing pKAT1, pRATRAK, pDmORF1, and pYES2 are plated in arginine-phosphate-dextrose agar medium lacking ura and containing various amounts of potassium chloride. Arginine-phosphate-dextrose medium is used to avoid interference from potassium and ammonium ions present in standard synthetic yeast culture medium. Sterile filter disks were placed on the surface of the agar and saturated with potassium channel blocking ions CsCl, BaCl2, and TEA. The growth of heterologous potassium channel containing strains is inhibited by potassium channel blocking ions, in a channel dependent manner. DmORF1-dependent growth is blocked by BaCl2 but not by CsCl or TEA. […]

RATRAK = biological target: T1, RATRAK (Rattus norvegicus, UniProt P63142); experiment: Yeast agar plate bioassay, RATRAK-dependent growth of CY162; assay type: cell-based; conditions: CY162 yeast bearing pRATRAK; filter disk with 20 μl of 1 M solution; blocked to a much greater extent than pKAT1
T1 construct: expressed in transfected cells; host or cells: Saccharomyces cerevisiae CY162 carrying pRATRAK
Experimental: as §1
(§2) Yeast strains dependent on heterologous potassium channels for growth should be sensitive to non-specific potassium channel blocking compounds. To test the potassium channel blocking properties of several compounds, a convenient agar plate bioassay is employed. Strains containing pKAT1, pRATRAK, pDmORF1, and pYES2 are plated in arginine-phosphate-dextrose agar medium lacking ura and containing various amounts of potassium chloride. Arginine-phosphate-dextrose medium is used to avoid interference from potassium and ammonium ions present in standard synthetic yeast culture medium. Sterile filter disks were placed on the surface of the agar and saturated with potassium channel blocking ions CsCl, BaCl2, and TEA. The growth of heterologous potassium channel containing strains is inhibited by potassium channel blocking ions, in a channel dependent manner. DmORF1-dependent growth is blocked by BaCl2 but not by CsCl or TEA. KAT-dependent growth is blocked by BaCl2, CsCl and TEA. RATRAK-dependent growth is blocked by BaCl2, CsCl and TEA to a much greater extent than pKAT1, reflecting in part a slower growth rate of pRATRAK-containing cells.

TPKC1 [1] = biological target: T2, TPKC1 (Homo sapiens, UniProt O95069, D309R/L311V/L365I/T411A/W310L); experiment: Growth of TPKC1-containing CY162 cells on low potassium media; assay type: cell-based; set-up: The TPKC1 ORF was amplified by PCR with 5′ primer; expressed in transfected cells; conditions: low (2-3 mM KCl) potassium media
T2 sequence (O95069 1-426 D309R/W310L/L311V/L365I/T411A): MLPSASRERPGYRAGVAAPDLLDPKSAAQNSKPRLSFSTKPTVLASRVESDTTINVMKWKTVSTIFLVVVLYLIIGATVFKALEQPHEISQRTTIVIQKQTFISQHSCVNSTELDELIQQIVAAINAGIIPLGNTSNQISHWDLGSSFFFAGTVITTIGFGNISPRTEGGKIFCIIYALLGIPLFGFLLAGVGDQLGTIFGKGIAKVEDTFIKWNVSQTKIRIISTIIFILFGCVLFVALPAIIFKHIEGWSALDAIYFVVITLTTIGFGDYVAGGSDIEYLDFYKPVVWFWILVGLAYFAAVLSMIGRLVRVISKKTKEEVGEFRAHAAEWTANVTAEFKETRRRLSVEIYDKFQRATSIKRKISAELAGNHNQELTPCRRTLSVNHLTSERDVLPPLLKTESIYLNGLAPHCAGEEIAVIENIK
From the text: The TPKC1 ORF was amplified using oligos that added restriction endonuclease cleavage sites appropriate for insertion into the yeast expression vectors pLP100 and pYES2 (Invitrogen). The corresponding TPKC1 expression plasmids, pLP155 and pLP156, were constructed using standard molecular biological methodology and used to transform S. cerevisiae CY162 cells using the lithium acetate method. The resulting yeast strains were examined for their ability to grow on standard synthetic agar media containing a low concentration of KCl. Expression of TPKC1 in CY162 cells supports their growth on low (2-3 mM KCl) potassium media. […] The growth of TPKC1-containing CY162 cells was inhibited by the known potassium channel blockers Ba^2+, Ca^2+, Cs^+, and quinine, but not by TEA. The oligos used for the cloning of 5′ and 3′ RACE fragments were used in this analysis as well.
LY890 (MAT trk1:: LYS2 trk2::TRP1 ura3-52 lys2-801, ade2-101, trp1-Δ63, his3-Δ200, leu2-Δ1) was constructed by deletion of the TRK1 and TRK2 genes from the parent yeast strain YPH500 (Stratagene). The full length TPKC1 ORF fragment was generated by PCR; 5′ primer (5′-AAAAGATCTAAAATGCTTCCCAGCGCC-3′), 3′ primer (AAAGTCGACCTATTTGATGTTCTCAAT-3′) and inserted into the yeast expression vector pLP100 [18] to yield pLP155. pLP155 was used to transform S. cerevisiae LY890 cells using standard methods. CY162 was constructed as described in J. A. Anderson et al., Proc. Natl. Acad. Sci. USA 89, 3736-3740 (1992). Yeast cells (10^5) containing the indicated plasmids were plated in RPD (arginine phosphate glucose) low potassium (2 mM) agar media and compounds applied to the surface of the agar.

DmORF1 [2] = biological target: T3, DmORF1 (Drosophila melanogaster, UniProt Q94526); experiment: Yeast agar plate bioassay, DmORF1-dependent growth of CY162; assay type: cell-based; set-up: A single long open reading frame sufficient to encode a protein of 618 amino acids (predicted MW 68 kDa) is encoded in pDmORF1; expressed in transfected cells; host or cells: Saccharomyces cerevisiae CY162 (trk1 trk2) carrying pDmORF1 (pYES2 library plasmid); conditions: CY162 yeast bearing pDmORF1; filter disk with 20 μl of 1 M solution; arginine phosphate agar, 0.2 mM KCl
Experimental: as §1, §2

TPKC1 [3] = biological target: T2, TPKC1; experiment: TPCK1-induced currents in X. laevis oocytes, two-electrode voltage clamp; assay type: cell-based; set-up: The TPKC1 ORF was amplified by PCR with 5′ primer; expressed in transfected cells; host or cells: Xenopus laevis oocytes injected with cRNA transcribed from pLP163; conditions: for block of TPKC1 current: relative to Ba2+ (50% at 1 mM), data not shown
From the text: The expression vector pLP160 was generated by inserting a poly (A)n tract (n=30) followed by a BglII site between the Not1 and XbaI sites of pBluescript SK (+/−) (Stratagene). The final vector contains a deletion from the poly(A) tract through the BamH1 site. The TPKC1 ORF was amplified by PCR with 5′ primer (5′-AAAAAGCTTGCCACCATGCTTCCCAGCGCC-3′) and 3′ primer (5′-CTA TTT GAT GTT CTC-3′), digested with the HindIII and inserted into the vector pLP160 digested with HindIII and SmaI to give pLP163. This construct was linearized with BglII for in vitro cRNA transcription with T7 RNA polymerase (Ambion). The cRNA was quantified by gel electrophoresis using RNA standards (Gibco BRL). One ng of TPKC1 cRNA (23 nl of 40 ng/μl solution) was microinjected into defolliculated oocytes from Xenopus laevis. Oocytes were incubated at 17° C. with gentle shaking in ND96 medium. Whole cell electrophysiological recordings were taken 1-3 days post-injection at room temperature in a constantly-perfusing bath using a two-electrode voltage clamp protocol of 300 ms pulses from −150 to +60 mV from a holding potential of −90 mV. The interval between pulses was one second. Electrodes (3 MΩ current injection, 30 MΩ voltage recording) contained 4 M potassium acetate.

KAT1 = biological target: T4, KAT1 (Arabidopsis thaliana, UniProt Q39128); experiment: Yeast agar plate bioassay, KAT-dependent growth of CY162; assay type: cell-based, plant; conditions: CY162 yeast bearing pKAT1; filter disk with 20 μl of 1 M solution; arginine phosphate agar, 0.2 mM KCl
T4 construct: expressed in transfected cells; host or cells: Saccharomyces cerevisiae CY162 carrying pKAT1
Experimental: as §1, §2

DmORF1 [4] = biological target: T3, DmORF1; experiment: 86Rb uptake into CY162 cells containing DmORF1; assay type: cell-based; set-up: A single long open reading frame sufficient to encode a protein of 618 amino acids (predicted MW 68 kDa) is encoded in pDmORF1; expressed in transfected cells; host or cells: Saccharomyces cerevisiae CY162 (trk1 trk2) carrying pDmORF1 (pYES2 library plasmid); conditions: CY162-DmORF1 yeast cells, Ca-MES buffer, room temperature
Experimental: Expression of DmORF permits CY162 cells to grow on medium containing a low concentration of potassium, implying that DmORF1 supplies high affinity potassium uptake capacity. To characterize the potassium uptake properties of CY162 cells containing DmORF1, ^86Rb uptake studies were performed.
Yeast strains containing heterologous potassium-expression plasmids CY162-DmORF1, CY162-pKAT and the control strain CY162-pYES2 (Clontech) were cultured overnight in SC Gal-ura containing 0.1 M KCl. The cells were harvested, washed with sterile doubled distilled water and starved for K^+ for 6 hours in Ca-MES buffer. Cells were washed again and distributed to culture tubes (10^8 cells/tube) containing ^86RbCl in Ca-MES buffer.

DmORF1 [5] = biological target: T3, DmORF1; experiment: DmORF1-induced currents in X. laevis oocytes, two-electrode voltage clamp; assay type: cell-based; set-up: A single long open reading frame sufficient to encode a protein of 618 amino acids (predicted MW 68 kDa) is encoded in pDmORF1; expressed in transfected cells; conditions: two-electrode whole-cell voltage clamp
Experimental: To test this hypothesis, the electrophysiological properties of the putative potassium channel encoded by DmORF1 was examined by expression in X. laevis oocytes. Currents were measured by two-electrode whole-cell voltage clamp. DNA sequences encoding the open reading frame of DmORF1 were amplified by polymerase chain reaction (PCR) using the following oligonucleotides:
The full length PCR product was cloned into corresponding sites in pSP64 poly A (Promega), forming pMP147. Template DNA was linearized with EcoRI and RNA transcribed using the Message Machine (Ambion) in vitro transcription kit according to manufacturers instructions. A sample of the RNA was resolved in a MOPS-acetate-formaldehyde agarose gel and RNA content was estimated by ethidium bromide staining. The remainder was stored on dry ice. X. laevis oocytes were isolated and injected with 50 nl of sterile TE containing 5-20 ng transcript according to published procedures. After three days, whole oocyte currents were recorded using a two-electrode voltage clamp. Electrodes contained 3M KCl and had resistances of 0.3-1.0 MW. Recordings were performed faith constant perfusion at room temperature in the presence of either low (10 mM) or high (90 mM) potassium chloride.

T1 sequence (P63142 whole entry): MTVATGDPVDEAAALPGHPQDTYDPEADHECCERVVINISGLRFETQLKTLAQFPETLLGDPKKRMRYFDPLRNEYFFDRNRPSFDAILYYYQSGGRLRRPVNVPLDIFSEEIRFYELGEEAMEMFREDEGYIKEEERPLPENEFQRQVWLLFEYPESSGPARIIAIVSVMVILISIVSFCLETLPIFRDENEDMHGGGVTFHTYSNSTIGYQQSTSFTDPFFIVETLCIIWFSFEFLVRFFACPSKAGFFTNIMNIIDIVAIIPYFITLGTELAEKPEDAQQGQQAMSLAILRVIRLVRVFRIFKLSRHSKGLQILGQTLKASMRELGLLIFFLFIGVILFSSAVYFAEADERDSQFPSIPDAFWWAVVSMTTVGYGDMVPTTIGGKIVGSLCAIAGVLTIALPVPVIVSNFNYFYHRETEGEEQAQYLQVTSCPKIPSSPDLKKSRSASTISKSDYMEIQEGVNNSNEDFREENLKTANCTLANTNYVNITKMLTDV
T4 sequence (Q39128 whole entry): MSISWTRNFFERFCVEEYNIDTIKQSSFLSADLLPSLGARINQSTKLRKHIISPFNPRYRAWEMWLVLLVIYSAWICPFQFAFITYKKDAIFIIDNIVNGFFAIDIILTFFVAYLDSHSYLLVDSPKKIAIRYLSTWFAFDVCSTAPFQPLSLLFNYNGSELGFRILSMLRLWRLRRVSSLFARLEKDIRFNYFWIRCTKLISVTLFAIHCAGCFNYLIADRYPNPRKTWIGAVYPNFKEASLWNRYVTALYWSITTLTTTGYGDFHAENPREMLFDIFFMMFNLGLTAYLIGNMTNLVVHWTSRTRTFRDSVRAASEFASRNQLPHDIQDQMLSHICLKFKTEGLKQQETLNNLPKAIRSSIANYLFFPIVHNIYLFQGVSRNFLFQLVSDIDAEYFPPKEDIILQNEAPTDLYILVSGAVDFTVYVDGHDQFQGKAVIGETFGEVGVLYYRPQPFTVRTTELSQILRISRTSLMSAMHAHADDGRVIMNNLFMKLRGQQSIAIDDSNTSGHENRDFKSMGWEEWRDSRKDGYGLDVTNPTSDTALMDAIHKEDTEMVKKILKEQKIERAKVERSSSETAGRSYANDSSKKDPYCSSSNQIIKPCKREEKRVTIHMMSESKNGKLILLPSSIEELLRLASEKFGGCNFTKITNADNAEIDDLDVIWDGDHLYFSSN
T3 sequence (Q94526 other isoform, or with tags, fused parts or gaps with the stated changes): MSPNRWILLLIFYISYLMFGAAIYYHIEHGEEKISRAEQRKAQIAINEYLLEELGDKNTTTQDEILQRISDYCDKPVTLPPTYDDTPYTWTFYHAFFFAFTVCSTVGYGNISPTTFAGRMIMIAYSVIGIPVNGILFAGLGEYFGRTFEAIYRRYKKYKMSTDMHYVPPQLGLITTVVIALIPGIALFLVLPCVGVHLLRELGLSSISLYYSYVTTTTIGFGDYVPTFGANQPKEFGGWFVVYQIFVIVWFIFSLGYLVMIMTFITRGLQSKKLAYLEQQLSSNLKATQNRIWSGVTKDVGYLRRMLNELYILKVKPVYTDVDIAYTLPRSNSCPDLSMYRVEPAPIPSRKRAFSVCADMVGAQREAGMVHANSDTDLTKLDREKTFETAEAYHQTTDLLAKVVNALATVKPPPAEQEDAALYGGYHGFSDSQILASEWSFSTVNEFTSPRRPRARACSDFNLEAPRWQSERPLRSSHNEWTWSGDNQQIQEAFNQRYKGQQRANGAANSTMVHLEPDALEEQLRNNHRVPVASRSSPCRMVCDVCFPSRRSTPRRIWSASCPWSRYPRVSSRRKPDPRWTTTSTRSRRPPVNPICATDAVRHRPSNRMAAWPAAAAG

Compound | block of RATRAK-dependent growth (RATRAK) | inhibition of growth of TPKC1-containing CY162 cells (TPKC1 [1]) | block of DmORF1-dependent growth (DmORF1 [2]) | block of TPKC1 current (TPKC1 [3]) | block of KAT-dependent growth (KAT1) | further results
[Cl-].[K+] [KCl] |  |  |  |  |  | growth of control pYES-containing strain around applied compound (CY162 cells): grows only around applied
[Cl-].[Cs+] [CsCl] | blocked | inhibited | not | failed to block | blocked | 
CC[N+](CC)(CC)CC [TEA] | blocked | not | not | failed to block | blocked | 
C=C[C@H]1C[N@@]2CC[C@H]1C[C@H]2[C@H](O)c1ccnc2ccc(OC)cc12 [quinine] |  | inhibited |  | block to a lesser degree |  | 
[Cl-].[Rb+] [RbCl] |  |  |  |  |  | growth of control pYES-containing strain around applied compound (CY162 cells): grows only around applied
[Ca+2] [Ca^2+] |  | inhibited |  | block to a lesser degree |  | 
[Ba+2].[Cl-].[Cl-] [BaCl2] | blocked | inhibited | blocked |  | blocked | inhibition of 86Rb uptake (DmORF1 [4]): inhibited; attenuation of DmORF1 potassium currents (DmORF1 [5]): greatly attenuated; inhibition of TPKC1 current (TPKC1 [3]; applied at 1 mM, FIG. 11D): 50%
Nc1ccncc1 [4-AP] |  |  |  | block to a lesser degree |  | 
